The first assay has as its target T1, Estrogen receptor (Rattus norvegicus) (UniProt P06211+Q62986). Put plainly: Relative binding affinity for estrogen receptor. Format: protein assay.
The molecule `CC[C@@](C)(c1ccc(O)cc1)[C@H](CCCC(=O)O)c1ccc(O)cc1` came in with a relative binding affinity (RBA) of 0.1.

A further assay concerns the target T1, Estrogen receptor (Rattus norvegicus). Put plainly: Binding affinity to estrogen receptor. Format: protein assay.
Consider `CC[C@@](C)(c1ccc(O)cc1)[C@H](CCCC(=O)NC)c1ccc(O)cc1`, for which the relative binding affinity (RBA) is 0.2.

As to `CC[C@@](C)(c1ccc(O)cc1)[C@H](CCCCOS(C)(=O)=O)c1ccc(O)cc1`, the relative binding affinity (RBA) was 0.3.

`CC[C@@](C)(c1ccc(O)cc1)[C@H](CCCCC=O)c1ccc(O)cc1` yielded a relative binding affinity (RBA) of 1.

On to `CC[C@@](C)(c1ccc(O)cc1)[C@H](CCCCN1CCCOP1(=O)N(CCCl)CCCl)c1ccc(O)cc1` (relative stereo), for which the relative binding affinity (RBA) amounted to 1.

Molecule `CC[C@@](C)(c1ccc(O)cc1)[C@H](CCCCOCCCl)c1ccc(O)cc1` (relative stereo) had a relative binding affinity (RBA) of 0.3.

`CC[C@@](C)(c1cc(Br)c(O)c(Br)c1)[C@H](CCCCO)c1ccc(O)c(Br)c1`: the relative binding affinity (RBA) was found to be 0.1.

Turning to `CC[C@@](C)(c1ccc(O)cc1)[C@H](CCCCI)c1ccc(O)cc1` (relative stereo), the relative binding affinity (RBA) stood at 0.2.

`CC[C@@](C)(c1ccc(O)cc1)[C@H](CCCC(=O)NCCO)c1ccc(O)cc1` came in with a relative binding affinity (RBA) of 0.1.

On to `CC[C@@](C)(c1ccc(O)cc1)[C@H](CCCCOC(C)=O)c1ccc(O)cc1`, for which the relative binding affinity (RBA) was 1.

`CC[C@@](C)(c1ccc(O)cc1)[C@H](CCCCSCCO)c1ccc(O)cc1` (relative stereo) returned a relative binding affinity (RBA) of 0.4.

The molecule `CC[C@@](C)(c1ccc(O)cc1)[C@H](CCCCOCCOCCOCCCl)c1ccc(O)cc1` (relative stereo) showed a relative binding affinity (RBA) of 0.5.

`CC[C@@](C)(c1ccc(O)cc1)[C@H](CCCC(=O)N(CCO)CCO)c1ccc(O)cc1` displayed a relative binding affinity (RBA) of 0.2.

Molecule `CC[C@](C)(c1ccc(O)cc1)[C@H](CCCCNCCCl)c1ccc(O)cc1` (relative stereo) came in with a relative binding affinity (RBA) of 1.

As to `CC[C@@](C)(c1ccc(O)cc1)[C@H](CCCCOCCOCCCl)c1ccc(O)cc1` (relative stereo), the relative binding affinity (RBA) stood at 1.

With `CC[C@@](C)(c1ccc(O)cc1)[C@H](CCCCN(CCO)CCO)c1ccc(O)cc1` (relative stereo), the relative binding affinity (RBA) is 0.9.

`CC[C@@](C)(c1ccc(O)cc1)[C@H](CCCC(=O)OC)c1ccc(O)cc1` showed a relative binding affinity (RBA) of 0.2.

The molecule `CCCC[C@H](c1ccc(O)cc1)[C@@](C)(CC)c1ccc(O)cc1` (relative stereo) displayed a relative binding affinity (RBA) of 1.

`CC[C@@](C)(c1ccc(O)cc1)[C@H](CCCCBr)c1ccc(O)cc1` (relative stereo): the relative binding affinity (RBA) stood at 1.

As to `CC[C@@](C)(c1ccc(O)cc1)[C@H](CCCCOCCO)c1ccc(O)cc1`, the relative binding affinity (RBA) was determined as 1.

Consider `CC[C@@](C)(c1ccc(O)cc1)[C@H](CCCCO)c1ccc(O)cc1` (relative stereo), for which the relative binding affinity (RBA) stood at 1.5.

On to `C=CCCC[C@H](c1ccc(O)cc1)[C@@](C)(CC)c1ccc(O)cc1` (relative stereo), for which the relative binding affinity (RBA) worked out at 1.

With `CC[C@@](C)(c1ccc(O)cc1)[C@H](CCCCNC(=O)N(CCCl)N=O)c1ccc(O)cc1`, the relative binding affinity (RBA) turned out to be 1.

In turn, `CC[C@](C)(c1ccc(O)cc1)[C@H](CCCCN(CCCl)CCCl)c1ccc(O)cc1` (relative stereo) yielded a relative binding affinity (RBA) of 2.5.

In turn, `CC[C@@](C)(c1ccc(O)cc1)[C@H](CCCC=O)c1ccc(O)cc1` registered a relative binding affinity (RBA) of 1.

`CCSCCCCC(c1ccc(O)cc1)C(C)(CC)c1ccc(O)cc1` (stereo unspecified) showed a relative binding affinity (RBA) of 0.2.

As to `CC[C@@](C)(c1ccc(O)cc1)[C@H](CCCCCl)c1ccc(O)cc1` (relative stereo), the relative binding affinity (RBA) came out at 1.5.

The molecule `CC[C@@](C)(c1ccc(O)cc1)[C@H](CCCCOCCOCCO)c1ccc(O)cc1` displayed a relative binding affinity (RBA) of 1.

With `CC[C@@](C)(c1ccc(O)cc1)[C@H](CCCCN)c1ccc(O)cc1` (relative stereo), the relative binding affinity (RBA) worked out at 2.

The molecule `CC[C@@](C)(c1ccc(O)cc1)[C@H](CCCCOCCOCCOCCO)c1ccc(O)cc1` came in with a relative binding affinity (RBA) of 1.

In the case of `CC[C@@](C)(c1ccc(O)cc1)[C@H](CCCC(N)=O)c1ccc(O)cc1`, the relative binding affinity (RBA) was determined as 0.9.

For the origin of these results see ChEMBL document CHEMBL1124525, “Hexestrol-linked cytotoxic agents: synthesis and binding affinity for estrogen receptors” (J Med Chem, 1989).
